Measured values taken from patent US20170087129A1, “COMPOSITIONS AND METHODS FOR THE TREATMENT OF ATHEROSCLEROTIC CARDIOVASCULAR DISEASES WITH PDE4 MODULATORS” (Celgene Corporation, priority 2014, published 2017).

Key:
[1] = test system: PDE4 enzyme from U937 human monocytic cells; assay: Inhibition of PDE4 (enzyme assay, [3H]-cAMP); format: biochemical; settings: purified PDE4 enzyme from U937 human monocytic cells; 1 μM cAMP, 45 min at 30° C.
Experimental: Phosphodiesterase 4 enzyme was purified from U937 human monocytic cells by gel filtration chromatography, and phosphodiesterase reactions were carried out as previously described. See, e.g., Muller et al., Bioorg. Med. Chem. Lett., 1998, 8(19): 2669-2674. Briefly, reactions were carried out in 96-well deep-well plates in 50 mM Tris HCl pH 7.5, 5 mM MgCl2, 1 μM cyclic adenosine monophosphate (cAMP), plus 10 nM [^3H]-cAMP for 45 min at 30° C. The reactions were terminated by boiling, treated with 1 mg/ml snake venom, and separated using AG-1X8 ion exchange resin (BioRad). Reactions consumed less than 15% of available substrate.

THP-1 cells = assay: Inhibition of foam cell formation in THP-1 cells (Oil Red O staining); format: cell-based; settings: THP-1 cells + PMA, 50 μg/ml acLDL + 500 U/ml IFN-γ; two doses of 100 nM compound; versus vehicle samples; light microscopy
Experimental: THP-1 cells in suspension were maintained in RPMI 1640 media (PenStep, 10% FBS, 37° C., 5% CO2). The cells plated at 10^5-10^6 cells/well in 24-well plate (500 uL/well). Cell count was 34 at 1:20 and 1:30 dilution. Then, 100 nM PMA was added to allow for differentiation into macrophages, and the mixture was incubated for 24 hours. To the mixture, was added 500 U/mL IFN-gamma, and the resulting mixture was incubated for another 24 hours.
For vehicles, 50 μg/ml of acLDL and 500 U/ml IFN-γ were added to the cells. For those samples that received treatment by Compound A1, a first dose of 100 nM of Compound A1 was added 15 minutes before the addition of acLDL, and a second dose of 100 nM Compound A1 was added after 24 hours. Then, media was removed, and cells washed three times with PBS and fixed in 10% formalin for 10 minutes. Cells were rinsed in PBS (1 minute) and then with 60% isopropanol (15 seconds). Samples were stained with Oil Red O in darkness for 1 minute at 37° C. Samples were rinsed again in 60% isopropanol, then three times with PBS. Wells were kept hydrated until imaging, and samples were visualized using light microscopy.

SMILES | IC50 [1] | formation of foam cells (THP-1 cells)
CCOc1cc([C@@H](CS(C)(=O)=O)N2C(=O)c3cccc(NC(C)=O)c3C2=O)ccc1OC [Compound A1, (S)—N-(2-(1-(3-ethoxy-4-methoxyphenyl)-2-(methylsulfonyl)ethyl)-1,3-dioxoisoindolin-4-yl)acetamide] | ~74 nM | significantly reduced formation of foam cells
CCOc1cc([C@H](CS(C)(=O)=O)N2C(=O)c3cccc(NC(C)=O)c3C2=O)ccc1OC [Compound A2, (R)—N-(2-(1-(3-ethoxy-4-methoxyphenyl)-2-(methylsulfonyl)ethyl)-1,3-dioxoisoindolin-4-yl)acetamide] |  | effective in preventing or inhibiting the formation of foam cells
